Data as given in BindingDB's records for patent US10508109 (ONCOTHERAPY SCIENCE, INC., 2019).

Biological target: Histone-lysine N-methyltransferase SUV39H2 (Human, UniProt Q9H5I1)
Assay: Suv 39H2 Assay
Experimental: Assay buffer (4 μL) was added into all the wells, including test compound and control wells (except for Sinefungin control wells), using the Multidrop Combi. The plate was centrifuged at 1000 rpm for 1 min. […] SUV39H2 (8 μL, final conc: optimized for each lot of the enzyme based on specific activity) was added by using the Multidrop Combi. The assay plate was centrifuged at 1000 rpm for 1 min. Assay buffer was used as background control, and incubated at room temperature for 3 hours. The reaction was stopped with 20 μL of 2.5 mg/mL Streptavidin SPA beads (final conc. 50 μg/well) in buffer using the Multidrop Combi and centrifuged for 1 min. The plate was loaded into the Trilux-Microbeta counter and a delayed read of 10 hours was made. The radioactive signal was measured at 1 min/well. Sinefungin and the internal standard compound were used as tool compounds to determine assay performance.

Chain of Histone-lysine N-methyltransferase SUV39H2 (Q9H5I1 whole entry): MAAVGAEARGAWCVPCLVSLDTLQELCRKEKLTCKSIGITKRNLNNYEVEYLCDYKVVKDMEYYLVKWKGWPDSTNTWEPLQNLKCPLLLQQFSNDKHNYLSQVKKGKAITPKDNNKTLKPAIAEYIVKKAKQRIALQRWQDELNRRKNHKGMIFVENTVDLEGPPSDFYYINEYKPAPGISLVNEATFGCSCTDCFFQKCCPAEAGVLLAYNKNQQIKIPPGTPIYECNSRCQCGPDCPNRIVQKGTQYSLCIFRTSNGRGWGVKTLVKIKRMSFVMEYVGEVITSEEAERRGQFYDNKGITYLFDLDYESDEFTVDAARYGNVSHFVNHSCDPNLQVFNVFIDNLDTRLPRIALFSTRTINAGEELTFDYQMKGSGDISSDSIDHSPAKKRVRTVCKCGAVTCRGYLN

| Compound | IC50 [nM] |
| --- | --- |
| COc1cc(CO)c(-c2cn3ccc(N4CCN(CCNC(=O)OC(C)(C)C)CC4)cc3n2)cc1Cl [US10508109, Example 28] | 21 |
| COc1cc(CO)c(-c2cn3ccc(N4CCC(NC(C)=O)C4)cc3n2)cc1Cl (stereo unspecified) [US10508109, Example 37] | 4.35 |
| COc1cc(CO)c(-c2cn3ccc(N4CCC(NC(N)=O)C4)cc3n2)cc1Cl (stereo unspecified) [US10508109, Example 38] | 4.11 |
| COc1cc(CO)c(-c2cn3ccc(N4CCC(N)CC4)nc3n2)cc1Cl [US10508109, Example 42] | 79 |
| COc1cc(CO)c(-c2cn3ccc(N4CCN(CCO)CC4)cc3n2)cc1Cl [US10508109, Example 43] | 8.54 |
| COc1cc(CO)c(-c2cn3ccc(N4CC[C@H](N)C4)cc3n2)cc1Cl [US10508109, Example 47] | 8.29 |
| COc1cc(CO)c(-c2cn3ccc(N(C)CCNC(=O)OC(C)(C)C)cc3n2)cc1Cl [US10508109, Example 48] | 12.4 |
| COc1cc(CO)c(-c2cn3ccc(N4CCC(NC(=O)CCNC(=O)OC(C)(C)C)C4)nc3n2)cc1Br (stereo unspecified) [US10508109, Example 65] | 14 |
| COc1cc(CO)c(-c2cn3ccc(C4=CCN(CCN5CCCCC5)CC4)cc3n2)cc1Cl [US10508109, Example 147] | 29.5 |
| CCCS(=O)(=O)NC1CCN(c2ccn3cc(-c4cc(Cl)c(OC)cc4CO)nc3c2)CC1 [US10508109, Example 174] | 10.4 |
| COc1cc(CO)c(-c2cn3ccc(N4CCN(S(=O)(=O)C(C)C)CC4)cc3n2)cc1Cl [US10508109, Example 178] | 14.3 |
| COc1cc(CO)c(-c2cn3ccc(N4CCN(S(=O)(=O)Cc5ccccc5)CC4)cc3n2)cc1Cl [US10508109, Example 179] | 32.2 |
| COc1cc(CO)c(-c2cn3ccc(N4CCC(NS(=O)(=O)N(C)C)CC4)cc3n2)cc1Cl [US10508109, Example 181] | 13.9 |
| COc1cc(CO)c(-c2cn3ccc(N4CCC(N5CCCS5(=O)=O)CC4)cc3n2)cc1Cl [US10508109, Example 182] | 6.97 |
| COc1cc(CO)c(-c2cn3ccc(N4CCN(P(=O)(CO)OC)CC4)cc3n2)cc1Cl (stereo unspecified) [US10508109, Example 203] | 1.77 |
| COc1cc(CO)c(-c2cn3ccc(OC4CCN(S(=O)(=O)c5cccs5)CC4)cc3n2)cc1Cl [US10508109, Example 280] | 71.1 |
